Read-outs that look alike come from different tables or passages of the source.

Broadly, the IC50 is the concentration at which inhibition is half-maximal.

This assay addresses T1, human type 1 glycine transporter (GlyT1) (Homo sapiens, UniProt P48067).
T1 construct: T98G cells (glioma cells) expressing human type 1 glycine transporter (GlyT1) were used; endogenous in cells; host or cells: T98G cells (human glioma cells)
T1 sequence (P48067 1-706): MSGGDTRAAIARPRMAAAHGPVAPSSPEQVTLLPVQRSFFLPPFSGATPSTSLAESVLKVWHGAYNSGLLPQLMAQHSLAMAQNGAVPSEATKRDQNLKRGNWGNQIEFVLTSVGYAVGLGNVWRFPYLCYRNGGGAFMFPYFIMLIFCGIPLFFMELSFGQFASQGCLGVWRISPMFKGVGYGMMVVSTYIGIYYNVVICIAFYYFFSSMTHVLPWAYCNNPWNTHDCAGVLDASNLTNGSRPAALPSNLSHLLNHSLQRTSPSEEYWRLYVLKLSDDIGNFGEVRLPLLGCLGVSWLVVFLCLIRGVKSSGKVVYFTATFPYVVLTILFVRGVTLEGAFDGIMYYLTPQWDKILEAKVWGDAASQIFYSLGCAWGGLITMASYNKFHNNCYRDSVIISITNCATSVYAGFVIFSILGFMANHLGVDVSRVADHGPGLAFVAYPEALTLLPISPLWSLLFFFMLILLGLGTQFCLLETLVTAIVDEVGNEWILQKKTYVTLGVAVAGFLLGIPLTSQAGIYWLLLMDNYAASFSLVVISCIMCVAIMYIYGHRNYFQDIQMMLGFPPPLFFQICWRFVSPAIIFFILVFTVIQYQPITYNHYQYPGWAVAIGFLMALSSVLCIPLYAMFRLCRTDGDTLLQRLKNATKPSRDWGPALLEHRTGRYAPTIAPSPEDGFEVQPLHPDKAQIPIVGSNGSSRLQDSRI
The experiment in a line: Glycine uptake inhibition experiment ([3H] glycine uptake in T98G cells expressing GlyT1). In kind it is cell-based. A digest of the protocol:
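T98G glioma cells expressing human GlyT1 were pretreated 10 min with compound in HEPES buffer pH 7.4 (0.2% BSA), then incubated with compound plus 250 nM final [3H]glycine for 15 min at room temperature. Intracellular radioactivity was counted after NaOH lysis; 10 μM ALX5407 defined non-specific uptake. IC50 came from 10^−9–10^−5 M curves.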

Setting [1] is: table section whose head prints (μm).

For the molecule `O=C1N(Cc2cccc(Cl)n2)c2cccc(C(O)CF)c2C1(F)F` (stereo not shown) [Compound 11, 1-[(6-chloropyridin-2-yl)methyl]-3,3-difluoro-4-(2-fluoro-1-hydroxyethyl)-1,3-dihydro-2H-indol-2-one], it took 17 nM to reach half-maximal inhibition (glycine uptake inhibition) (IC50).

For the molecule `C[C@H](O)c1cccc2c1C(F)(F)C(=O)N2Cc1cc(C#N)ncc1Cl` [Compound 195, 5-chloro-4-({3,3-difluoro-4-[(1S)-1-hydroxyethyl]-2-oxo-2,3-dihydro-1H-indol-1-yl}methyl)pyridine-2-carbonitrile], the IC50 came out at 42 nM.

With `O=C1N(Cc2ccnc(Cl)c2)c2cccc([C@H](O)C(F)(F)F)c2C1(F)F` [Compound 31, 1-[(2-chloropyridin-4-yl)methyl]-3,3-difluoro-4-[(1S)-2,2,2-trifluoro-1-hydroxyethyl]-1,3-dihydro-2H-indol-2-one], where the note is “glycine uptake inhibition”, half-maximal inhibition (IC50) required 350 nM.

For `O=C1N(Cc2cncc(Cl)c2)c2c(F)ccc(C(O)C(F)F)c2C1(F)F` (stereo not shown) [Compound 252, 1-[(5-chloropyridin-3-yl)methyl]-4-(2,2-difluoro-1-hydroxyethyl)-3,3,7-trifluoro-1,3-dihydro-2H-indol-2-one], half-maximal inhibition (IC50) was put at 46 nM.

In turn, `C[C@H](O)c1cccc2c1C(F)(F)C(=O)N2Cc1cnc2ccccc2c1` [Compound 74, 3,3-difluoro-4-[(1S)-1-hydroxyethyl)-1-(quinolin-3-ylmethyl)-1,3-dihydro-2H-indol-2-one] came in with an IC50 (glycine uptake inhibition) of 39 nM.

`O=C1N(Cc2cncc(OC(F)F)c2)c2cccc(C(O)C(F)F)c2C1(F)F` (single isomer, unassigned) [Compound 258, 4-(2,2-difluoro-1-hydroxyethyl)-1-{[5-(difluoromethoxy)pyridin-3-yl]methyl}-3,3-difluoro-1,3-dihydro-2H-indol-2-one]: the half-maximal inhibitory concentration (IC50) under setting [1] is 120 nM.

For `O=C1N(Cc2cc(Cl)c(F)cn2)c2cccc(C(O)C(F)F)c2C1(F)F` (single isomer, unassigned) [Compound 266, 1-[(4-chloro-5-fluoropyridin-2-yl)methyl]-4-(2,2-difluoro-1-hydroxyethyl)-3,3-difluoro-1,3-dihydro-2H-indol-2-one], it took 21 nM to reach half-maximal inhibition under setting [1] (IC50).

Take `C[C@H](O)c1cccc2c1C(F)(F)C(=O)N2Cc1ccc(OC(F)F)nc1` [Compound 215, 1-{[6 (difluoromethoxy)pyridin-3-yl]methyl}-3,3-difluoro-4-[(1S)-1-hydroxyethyl]-1,3-dihydro-2H-indol-2-one]: half-maximal inhibition (IC50) was put at 240 nM.

`C[C@H](O)c1cccc2c1C(F)(F)C(=O)N2Cc1ccc(C(F)(F)F)nc1` [Compound 118, 3,3-difluoro-4-[(1S)-1-hydroxyethyl]-1-{[6-(trifluoromethyl)pyridin-3-yl]methyl}-1,3-dihydro-2H-indol-2-one] gave a half-inhibitory concentration (IC50) (glycine uptake inhibition) of 27 nM.

Molecule `COc1cccnc1CN1C(=O)C(F)(F)c2c([C@H](C)O)cccc21` [Compound 247, 3,3-difluoro-4-[(1S)-1-hydroxyethyl]-1-[(3-methoxypyridin-2-yl)methyl]-1,3-dihydro-2H-indol-2-one] showed a half-maximal inhibitory concentration (IC50) of 580 nM.

Molecule `N#Cc1cc(CN2C(=O)C(F)(F)c3c(C(O)C(F)F)cccc32)cnc1F` (single isomer, unassigned) [Compound 272, 5-{[4-(2,2-difluoro-1-hydroxyethyl)-3,3-difluoro-2-oxo-2,3-dihydro-1H-indol-1-yl]methyl}-2-fluoropyridine-3-carbonitrile] displayed an IC50 under setting [1] of 27 nM.

The molecule `O=C1N(Cc2ccc(Cl)cn2)c2cccc(C(O)C(F)F)c2C1(F)F` (single isomer, unassigned) [Compound 162, 1-[(5-chloropyridin-2-yl)methyl]-4-(2,2-difluoro-1-hydroxyethyl)-3,3-difluoro-1,3-dihydro-2H-indol-2-one] showed an IC50 of 220 nM.

As for `C[C@H](O)c1cccc2c1C(F)(F)C(=O)N2Cc1ccnc(-n2nccn2)c1` [Compound 45, 3,3-difluoro-4-[(1S)-1-hydroxyethyl]-1-{[2-(2H-1,2,3-triazol-2-yl)pyridin-4-yl]methyl}-1,3-dihydro-2H-indol-2-one], the concentration for half-maximal inhibition (IC50) (glycine uptake inhibition) was found to be 110 nM.

The record behind these values is patent US20160159814A1, “GLYCINE TRANSPORTER INHIBITOR” (TAISHO PHARMACEUTICAL CO., LTD., priority 2013, published 2016).
